Experimental data as given in US10500194B2, “Covalent small molecule DCN1 inhibitors and therapeutic methods using the same” (THE REGENTS OF THE UNIVERSITY OF MICHIGAN, priority 2017, dated 2019).

Tests used:
[1] = tested on: Nrf2 protein; test: Effect of covalent DCN1 inhibitors on Nrf2 protein level in mouse liver; format: in vivo; conditions: single dose 25 mg/kg IP, C57BL/6 male mice, western blotting
Description: Liver tissues harvested from C57BL/6 male mice treated with Example 9 (DI-1548) at 25 mg/kg via intraperitoneal (IP) injection were lysed with RIAP buffer. The expression level of Nrf2 protein was examined by western blotting. GAPDH was used a loading control.
The effect of several representative covalent DCN1 inhibitors (Examples 9, 21 and 22) on the level of Nrf2 protein in mouse liver was examined. Mice were administered with a single dose of Example 9 (DI-1548), Example 21 (DI-1859) or Example 22 (DI-1860) at 25 mg/kg, or phosphate-buffered saline (PBS), all via intraperitoneal (IP) injection. Mice were sacrificed at different time points and liver tissues were harvested for western blotting analysis for Nrf2 protein level. The data are shown in FIGS. 5, 6 and 7, respectively.

[2] = target: T1, DCN1 (Homo sapiens (Human), UniProt Q96GG9); test: Competitive FP binding assay; conditions: read-out: Binding affinity to DCN1 (IC50)
Description: The Fluorescence Polarization (FP) competitive binding assays were performed to accurately determine the binding affinities of our DCN1 inhibitors. A novel FAM labeled fluorescent probe compound (46) was designed and synthesized based on one of our potent small molecule DCN1 inhibitors. Equilibrium dissociation constants (Kd) values of 46 to both DCN1 and DCN2 proteins were determined from protein saturation experiments by monitoring the total FP values of mixtures composed with the fluorescent probe at a fixed concentration and proteins with increasing concentrations up to full saturation. Serial dilutions of proteins were mixed with 46 to a final volume of 200 μl in the assay buffer (100 mM phosphate buffer, pH=6.5, with 0.02% Tween-20 and 2% DMSO). Final probe concentration was 5 nM for both assays. Plates were incubated at room temperature for 30 minutes with gentle shaking to assure equilibrium. FP values in millipolarization units (mP) were measured using the Infinite M-1000 plate reader (Tecan U.S., Research Triangle Park, N.C.) in Microfluor 1 96-well, black, round-bottom plates (Thermo Scientific, Waltham, Mass.) at an excitation wavelength of 485 nm and an emission wavelength of 530 nm. Kd values of 46 were calculated by fitting the sigmoidal dose-dependent FP increases as a function of protein concentrations using Graphpad Prism 6.0 software (Graphpad Software, San Diego, Calif.).
(§1) Human DCN1 (residues 58-259) were cloned into a pDEST17 plasmid containing an N-terminal His6 tag. DCN2 (residues 62-259), DCN3 (residues 86-304), DCN4 (residues 102-292) and DCN5 (residues 47-237) were cloned into an N-terminal His6-TEV expression vector. Pure proteins were derived from the same expression and purification protocols. Plasmids were transformed into Rosetta2 cells, the cells were grown in Terrific Broth at 37° C. to an O.D.600>1.0 and induced with 0.4 mM Isopropyl β-D-1-thiogalactopyranoside overnight at 20° C. The pelleted cells were resuspended in lysis buffer containing 25 mM Tris-HCl, pH 7.5, 200 mM NaCl and protease inhibitors, sonicated and centrifuged at 34,000×g for 45 minutes to remove debris. Cleared lysate was incubated with Ni-NTA resin (Qiagen) prewashed with lysis buffer, for 1 hr at 4° C. The matrix was loaded into a column then washed with 25 mM Tris-HCl, pH 7.5, 200 mM NaCl and 10 mM imidazole. Protein was eluted with 25 mM Tris-HCl, pH 7.5, 200 mM NaCl and 300 mM imidazole, concentrated and applied to a Superdex 75 (GE Healthcare) column pre-equilibrated with 25 mM Tris pH 7.5, 200 mM NaCl and 1 mM DTT. For DCN2-5, the N-terminal His6 tag was removed prior to gel filtration. Tag removal was achieved through incubation with TEV protease during overnight dialysis against 25 mM Tris pH 7.5, 200 mM NaCl and 1 mM DTT and a second Ni-NTA column. DCN2-5 proteins were stored at −80° C. in 1 mg/mL fractions containing 5% glycerol. The uncleaved DCN1 protein was stored at −80° C. without glycerol.

[3] = target: T1, DCN1; test: Mass spectroscopy of DCN1 protein incubations; format: binding
Description: as §1
Recombinant DCN1 protein (380 μM) in 25 mM Tris 7.5, 200 mM NaCl, 1 mM DTT buffer was incubated with a 1.2 fold excess of selected DCN1 inhibitors at 4° C. for overnight. The reaction mixture was diluted with tenfold with water, and the protein was analyzed by Q-TOF mass spectroscopy. DCN1 untreated, or treated with previously described non-covalent inhibitors produced an isotope deconvoluted peak at 26.085.75 amus. Incubation under the described conditions with Examples 4, 7 and 9 led to 95-99% ablation of the parent peak in the mass spectrum, with a major (>90%) new peak appearing at 26588.96 amu (Dalton) for Example 4, 26604.34 amu for Example 7, and 26596.18 amu for Example 9. In each case this corresponds to addition of the inhibitor to the protein, coupled with the loss of the morpholinyl group, from the initial Michael adduct between the protein and the small molecule.

[4] = tested on: neddylation of cullin 3 and NRF2 protein in HepG2 cells; test: Western blotting of cullin neddylation and NRF2 in HepG2 cells; format: cell-based; conditions: 20 h, compared with non-covalent inhibitor B
Description: HepG2 cells were treated as indicated concentrations for 20 h, NRF2, Cullin 1, and Cullin 3 proteins were examined by western blotting. GAPDH was used as a loading control.
Treated cells were lysed by RIPA buffer supplemented with protease inhibitor. The expression level of indicated proteins was examined by western blotting analysis. GAPDH was used as a loading control. Antibodies were purchased: Cullin 1 (sc-11384), Cullin2 (sc-10781), CullinS (sc-13014) and Cullin7 (sc-134565) from Santa Cruz Biotech. (Santa Cruz, Calif.); Cullin 4A (PA5-14542), Cullin 4B (PA5-35239), Cullin9 (PA5-20277), DCN2 (DCUNID2, PA5-31607) and DCN3 (DCUNID3, PA5-44000) from ThermoFisher Scientific (Wayne, Mich.); Cullin 3 (2759), NRF2 (12721), HO-1 (70081), NQO1 (3187), Cyclin E (4129), Bim (2819), Keap1 (8047) and UBC12 (4913) from Cell Signaling Technology (Boston, Mass.); DCN1 (GWB-E3D700) from GenWay Biotech (San Diego, Calif.). Results are representative of three independent experiments.

[5] = tested on: APAP-induced liver injury; test: Protection of mice from acetaminophen-induced liver injury (blood ALT activity); format: in vivo
Description: To induce acute liver injury, mice were administered a large dose (400 mg/kg) of APAP via intraperitoneal (I.P.) injection and were sacrificed 48 hr later. To examine the protective effect of DI-1859 (pretreatment), animals were I.P. injected with DI-1859 for three consecutive days (one day before APAP injection, three hours before APAP injection and a third dose on the next day after APAP injection). To examine the restorative effect of DI-1859 (post-treatment), mice were treated with DI-1859 three hours after APAP administration followed by two additional doses on the following two days. Two control groups of mice were treated with phosphate-buffered saline (PBS) or DI-1859, respectively. Blood sample collection was performed on each day.
The activity of alanine aminotransferase (ALT) in blood is a commonly used measurement clinically as a part of a diagnostic evaluation of liver injury, to determine liver health. Therefore, the blood ALT activity was measured using an ALT reagent set (Pointe Scientific Inc., Canton, Mich.). […] Furthermore, post-treatment of APAP with DI-1859 at 50 mg/kg reduces the APAP-induced elevated ALT level by approximately 50%.

[6] = DCN1 380 μM, 1.2 fold excess of inhibitor, 4° C. overnight, Q-TOF

T1 sequence (Q96GG9 58-259): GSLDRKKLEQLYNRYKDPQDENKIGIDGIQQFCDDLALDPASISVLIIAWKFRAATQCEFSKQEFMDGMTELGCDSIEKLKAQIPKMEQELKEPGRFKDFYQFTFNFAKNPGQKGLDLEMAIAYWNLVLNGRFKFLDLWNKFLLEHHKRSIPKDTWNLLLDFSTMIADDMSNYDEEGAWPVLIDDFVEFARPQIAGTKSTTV

Row | Structure (SMILES) | level of Nrf2 protein in mouse liver tissue [1] | IC50 [2] [nM] | ablation of the parent peak in the mass spectrum [3, 6] | major new peak (protein-inhibitor adduct) [3, 6] [%] | mass of new peak (DCN1 plus inhibitor, loss of morpholinyl group) [3, 6] [amu] | difference from DCN1 Apo-protein mass ([3]; FIG. 2) [Da] | formation of a covalent bond with DCN1 protein ([3]; FIG. 2, mass-spectroscopic analyses) | increasing the level of NRF2 protein [4] | inhibition of neddylation of cullin 3 [4] | reduction of APAP-induced elevated ALT level, post-treatment ([5]; APAP 400 mg/kg I.P., post-treatment at 50 mg/kg) | elevation of ALT activity by APAP, pretreatment ([5]; APAP 400 mg/kg I.P., pretreatment at 50 mg/kg) | elevated ALT activity induced by APAP, pretreatment ([5]; APAP 400 mg/kg I.P., pretreatment, dose-dependent) | APAP-induced alanine aminotransferase (ALT) increase ([5]; pre- or post-treatment, APAP, FIG. 8)
1 | C=C(CN(CC)CC)C(=O)NC[C@@H](NC(=O)[C@H](Cc1nc2ccc(C(C)C)cc2s1)NC(=O)CC)C1CCCCC1 [Example 22, N—((S)-2-cyclohexyl-2-((S)-3-(6-isopropylbenzo[d]thiazol-2-yl)-2-propionamidopropanamido)ethyl)-2-((diethylamino)methyl)acrylamide] | effectively increases | < 150 |  |  |  |  |  |  |  |  |  |  | 
2 | C=C(CN1CCOCC1)C(=O)NC[C@@H](NC(=O)[C@H](Cc1nc2ccc(C(C)C)cc2s1)NC(=O)CC)C1CCCCC1 [Example 9, N—((S)-2-((S)-3-(6-prop-2-ypbenzo[d]thiazol-2-yl)-2-propionamidopropanamido)-2-cyclohexylethyl)-2-(morpholinomethyl)acrylamide] | effectively increases | 66.5 | 95-99% | > 90 | 26596.18 | 510.81 | formation of a covalent bond | much stronger biological activity | much stronger biological activity |  |  |  | 
3 | C=C(CN(C)C)C(=O)NC[C@@H](NC(=O)[C@H](Cc1nc2ccc(C(C)C)cc2s1)NC(=O)CC)C1CCCCC1 [Example 21, N—((S)-2-cyclohexyl-2-((S)-3-(6-isopropylbenzo[d]thiazol-2-yl)-2-propionamidopropanamido)ethyl)-2-((dimethylamino)methyl)acrylamide] | effectively increases | < 150 |  |  |  |  |  |  |  | approximately 50% | completely prevents | effectively reduces | effectively blocks or reduces
